Results taken from patent publication US20200282008A1, “COMPOSITIONS AND METHODS FOR LONG TERM RELEASE OF GONADOTROPIN-RELEASING HORMONE (GnRH) ANTAGONISTS” (VERU INC., priority 2017, published 2020).
Non-standard residues stand in square brackets, D forms with d. Residues, ends and D or L forms follow the SMILES beside them. dPhe(4-Cl) = N[C@H](Cc1ccc(Cl)cc1)C(=O)O; d2Nal = N[C@H](Cc1ccc2ccccc2c1)C(=O)O; dCit = NC(=O)NCCC[C@@H](N)C(=O)O; d3Pal = N[C@H](Cc1cccnc1)C(=O)O

Test system: serum testosterone
Test: Second rat study: serum testosterone after cetrorelix PLGA formulations
Format: in vivo, rats
Experimental: In a second rat study serum testosterone and cetrorelix levels were measured over 12 weeks. […] The formulations found within Table 13 were injected in rats and then the testosterone was measured at 0, 1, 2, 8 and 24 hours and then daily until the end of the first week and then biweekly until week 4 and then weekly thereafter.
FIG. 21 compares the data from the 2nd rat and 1st dog study results for testosterone levels.

CC(=O)N[C@H](Cc1ccc2ccccc2c1)C(=O)N[C@H](Cc1ccc(Cl)cc1)C(=O)N[C@H](Cc1cccnc1)C(=O)N[C@@H](CO)C(=O)N[C@@H](Cc1ccc(O)cc1)C(=O)N[C@H](CCCNC(N)=O)C(=O)N[C@@H](CC(C)C)C(=O)N[C@@H](CCCNC(=N)N)C(=O)N1CCC[C@H]1C(=O)N[C@H](C)C(N)=O [cetrorelix] (Ac-[d2Nal][dPhe(4-Cl)][d3Pal]SY[dCit]LRP[dA]-NH2)
cetrorelix level required to inhibit testosterone production: 2 ng/mL
